Source: patent US8802597B2, “Herbicidal pyrimidines” (E I du Pont de Nemours and Company, priority 2003, dated 2014)

Columns and labels:
Experiment in all cases: Test C pre/postemergence
Assay type in all cases: in vivo
Settings in all cases: Postemergence
[1] = test system: cocklebur (Xanthium strumarium)
Method in brief: (§1)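 We sprayed seeded pots preemergence and 2–18 cm seedlings postemergence with test chemicals in a non-phytotoxic solvent mixture including surfactant. Greenhouse plants were visually compared with untreated controls at 12 to 14 days and scored 0 (no effect) to 100 (complete control).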

[2] = test system: common ragweed (Ambrosia elatior)
Method in brief: as §1

[3] = test system: crabgrass (Digitaria sanguinalis)
Method in brief: as §1

[4] = test system: giant foxtail (Setaria faberii)
Method in brief: as §1

kochia (Kochia scoparia) = test system: kochia (Kochia scoparia)
Method in brief: as §1

[5] = test system: morningglory (Ipomoea coccinea)
Method in brief: as §1

[6] = test system: pigweed (Amaranthus retroflexus)
Method in brief: as §1

[7] = test system: velvetleaf (Abutilon theophrasti)
Method in brief: as §1

[8] = test system: woolly cupgrass (Eriochloa villosa)
Method in brief: as §1

[9] = test system: yellow nutsedge (Cyperus esculentus)
Method in brief: as §1

[10] = 125 g ai/ha, scale 0 to 100 (0 no effect, 100 complete control)

Nc1nc(-c2ccc(Cl)cc2)nc(C(=O)O)c1Br [Compound 88]
Plant response rating (scale of 0 to 100), Cocklebur ([1]; 31 g ai/ha): 90
Plant response rating (scale of 0 to 100), Cocklebur ([1]; 62 g ai/ha): 90
Cocklebur plant response rating [1, 10]: 90
Plant response rating, Cocklebur ([1]; 250 g ai/ha, scale 0 to 100): 90
Plant response rating (scale of 0 to 100), Ragweed ([2]; 31 g ai/ha): 90
Plant response rating (scale of 0 to 100), Ragweed ([2]; 62 g ai/ha): 100
Ragweed plant response rating [2, 10]: 100
Plant response rating, Ragweed ([2]; 250 g ai/ha, scale 0 to 100): 100
Plant response rating (scale of 0 to 100), Crabgrass ([3]; 31 g ai/ha): 75
Plant response rating (scale of 0 to 100), Crabgrass ([3]; 62 g ai/ha): 80
Crabgrass plant response rating [3, 10]: 80
Plant response rating, Crabgrass ([3]; 250 g ai/ha, scale 0 to 100): 85
Plant response rating (scale of 0 to 100), Foxtail, Giant ([4]; 31 g ai/ha): 55
Plant response rating (scale of 0 to 100), Foxtail, Giant ([4]; 62 g ai/ha): 75
Foxtail, Giant plant response rating [4, 10]: 80
Plant response rating, Foxtail, Giant ([4]; 250 g ai/ha, scale 0 to 100): 85
Plant response rating (scale of 0 to 100), Kochia (kochia (Kochia scoparia); 31 g ai/ha): 85
Plant response rating (scale of 0 to 100), Kochia (kochia (Kochia scoparia); 62 g ai/ha): 95
Kochia plant response rating (kochia (Kochia scoparia); [10]): 95
Plant response rating, Kochia (kochia (Kochia scoparia); 250 g ai/ha, scale 0 to 100): 95
Plant response rating (scale of 0 to 100), Morningglory ([5]; 31 g ai/ha): 60
Morningglory plant response rating [5, 10]: 85
Plant response rating, Morningglory ([5]; 250 g ai/ha, scale 0 to 100): 85
Plant response rating (scale of 0 to 100), Pigweed ([6]; 31 g ai/ha): 95
Plant response rating (scale of 0 to 100), Pigweed ([6]; 62 g ai/ha): 100
Pigweed plant response rating [6, 10]: 100
Plant response rating, Pigweed ([6]; 250 g ai/ha, scale 0 to 100): 100
Plant response rating (scale of 0 to 100), Velvetleaf ([7]; 31 g ai/ha): 85
Plant response rating (scale of 0 to 100), Velvetleaf ([7]; 62 g ai/ha): 90
Velvetleaf plant response rating [7, 10]: 95
Plant response rating, Velvetleaf ([7]; 250 g ai/ha, scale 0 to 100): 95
Plant response rating (scale of 0 to 100), Cupgrass, Woolly ([8]; 31 g ai/ha): 70
Plant response rating (scale of 0 to 100), Cupgrass, Woolly ([8]; 62 g ai/ha): 75
Cupgrass, Woolly plant response rating [8, 10]: 85
Plant response rating, Cupgrass, Woolly ([8]; 250 g ai/ha, scale 0 to 100): 85
Plant response rating (scale of 0 to 100), Nutsedge, Yellow ([9]; 31 g ai/ha): 40
Plant response rating (scale of 0 to 100), Nutsedge, Yellow ([9]; 62 g ai/ha): 45
Nutsedge, Yellow plant response rating [9, 10]: 55
Plant response rating, Nutsedge, Yellow ([9]; 250 g ai/ha, scale 0 to 100): 75
